Biological target: T1, HMOX1 (heme oxygenase 1) (Homo sapiens, UniProt P09601)
T1 sequence (P09601 1-288): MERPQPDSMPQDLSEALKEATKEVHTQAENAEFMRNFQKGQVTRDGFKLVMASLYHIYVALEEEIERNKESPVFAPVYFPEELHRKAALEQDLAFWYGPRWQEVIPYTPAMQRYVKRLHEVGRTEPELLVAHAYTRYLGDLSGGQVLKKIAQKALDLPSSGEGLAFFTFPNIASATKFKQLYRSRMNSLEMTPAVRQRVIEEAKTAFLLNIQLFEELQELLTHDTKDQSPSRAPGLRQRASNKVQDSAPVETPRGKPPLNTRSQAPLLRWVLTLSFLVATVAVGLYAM
Experiment: SPR ([…] SIL); supported by CETSA and DARTS
Type: binding

Compound COc1cc(C2Oc3cc([C@H]4Oc5cc(O)cc(O)c5C(=O)[C@@H]4O)ccc3OC2CO)ccc1O (stereo partly shown) [SIL, Silibinin] has a Kd of 46 µM.
